The values that follow come from patent US20220411428A1, “Pyrimidone Derivatives Containing Two Fused Bicyclic Rings” (priority 2019, published 2022).

For orientation: mortality means the share of the test organisms that died.

Common to all, as to assay type: in vivo
Assay [1] deals with green peach aphid (Myzus persicae). Description: Green peach aphid (Myzus persicae) systemic test, artificial diet under membrane. To be noted: 72 h, read-out: mortality in comparison with untreated controls. As to the method: (§1) If not otherwise specified, the test solutions are prepared as follows: The active compound is dissolved at the desired concentration in a mixture of 1:1 (vol:vol) distilled water:acteone. The test solution is prepared at the day of use. Test solutions are prepared in general at concentrations of 2500 ppm, 1415 ppm, 828 ppm, 800 ppm and 300 ppm (wt/vol).
For evaluating control of green peach aphid (Myzus persicae) through systemic means the test unit consisted of 96-well-microtiter plates containing liquid artificial diet under an artificial membrane. The compounds were formulated using a solution containing 75% v/v water and 25% v/v DMSO. Different concentrations of formulated compounds were pipetted into the aphid diet, using a custom built pipetter, at two replications. After application, 5-8 adult aphids were placed on the artificial membrane inside the microtiter plate wells. The aphids were then allowed to suck on the treated aphid diet and incubated at about 23±1° C. and about 50±5% relative humidity for 3 days. Aphid mortality and fecundity was then visually assessed.

Assay [2] deals with boll weevil (Anthonomus grandis). Description: Boll weevil (Anthonomus grandis) microtiter insect-diet test. Conditions: 120 h, read-out: mortality in comparison with untreated controls. As to the method:
as §1
For evaluating control of boll weevil (Anthonomus grandis) the test unit consisted of 96-well-microtiter plates containing an insect diet and 5-10 A. grandis eggs. The compounds were formulated using a solution containing 75% v/v water and 25% v/v DMSO. Different concentrations of formulated compounds were sprayed onto the insect diet at 5 μl, using a custom built micro atomizer, at two replications. After application, microtiter plates were incubated at about 25±1° C. and about 75±5% relative humidity for 5 days. Egg and larval mortality was then visually assessed.

For assay [3], the system named is tobacco budworm (Heliothis virescens). Briefly: Tobacco budworm (Heliothis virescens) microtiter insect-diet test. Conditions: 120 h, read-out: mortality in comparison with untreated controls. The procedure:
as §1
For evaluating control of tobacco budworm (Heliothis virescens) the test unit consisted of 96-well-microtiter plates containing an insect diet and 15-25 H. virescens eggs. The compounds were formulated using a solution containing 75% v/v water and 25% v/v DMSO. Different concentrations of formulated compounds were sprayed onto the insect diet at 10 μl, using a custom built micro atomizer, at two replications. After application, microtiter plates were incubated at about 28±1° C. and about 80±5% relative humidity for 5 days. Egg and larval mortality was then visually assessed.

The subject of assay [4] is yellow fever mosquito (Aedes aegypti). Description: whole plant or invertebrate. Conditions: 48 h, larval mortality, 2 days, read-out: mortality in comparison with untreated controls. The procedure:
as §1
For evaluating control of yellow fever mosquito (Aedes aegypti) the test unit consisted of 96-well-microtiter plates containing 200 μl of tap water per well and 5-15 freshly hatched A. aegypti 5 larvae. The active compounds were formulated using a solution containing 75% (v/v) water and 25% (v/v) DMSO. Different concentrations of formulated compounds or mixtures were sprayed onto the insect diet at 2.5 μl, using a custom-built micro atomizer, at two replications. After application, microtiter plates were incubated at 28±1° C., 80±5% R^H for 2 days. Larval 10 mortality was then visually assessed.

In assay [5] the test system is vetch aphid (Megoura viciae). Description: Vetch aphid (Megoura viciae) broad bean leaf disk test, contact or systemic. To be noted: foliar, 120 h, read-out: mortality in comparison with untreated controls. As to the method:
as §1
For evaluating control of vetch aphid (Megoura viciae) through contact or systemic means the test unit consisted of 24-well-microtiter plates containing broad bean leaf disks.
The compounds were formulated using a solution containing 75% v/v water and 25% v/v DMSO. Different concentrations of formulated compounds were sprayed onto the leaf disks at 2.5 μl, using a custom built micro atomizer, at two replications. After application, the leaf disks were air-dried and 5-8 adult aphids placed on the leaf disks inside the microtiter plate wells. The aphids were then allowed to suck on the treated leaf disks and incubated at about 23±1° C. and about 50±5% relative humidity for 5 days. Aphid mortality and fecundity was then visually assessed.

The subject of assay [6] is Greenhouse Whitefly (Trialeurodes vaporariorum). Description: Greenhouse whitefly (Trialeurodes vaporariorum) egg plant leaf disk test. Conditions: foliar, 144 h, read-out: mortality in comparison with untreated controls. The procedure: as §1
For evaluating control of Greenhouse Whitefly (Trialeurodes vaporariorum) the test unit consisted of 96-well-microtiter plates containing a leaf disk of egg plant leaf disk with white fly eggs. The compounds or mixtures were formulated using a solution containing 75% water and 25% DMSO. Different concentrations of formulated were sprayed onto the insect diet at 2.5 μl, using a custom-built micro atomizer, at two replications. After application, microtiter plates were incubated at 23±1° C., 65±5% R^H for 6 days. Mortality of hatched crawlers was then visually assessed.

For `CCS(=O)(=O)c1c(-c2cn3c(=O)n(C4CC4)c(C(F)(F)F)cc3n2)nn2ccccc12` [I.11, 6-cyclopropyl-2-(3-ethylsulfonylpyrazolo[1,5-a]pyridin-2-yl)-7-(trifluoromethyl)imidazo[1,2-c]pyrimidin-5-one], the mortality at 800 ppm in assay [1] is greater than 75%; in assay [2], greater than 75%; in assay [3], greater than 75%; in assay [4] (800 ppm), no less than 75%.

`CCS(=O)(=O)c1c(-c2cn3c(=O)n(C)c(C(F)(F)F)cc3n2)nc2ccc(C(F)(F)F)cn12` [I.1, 2-[3-ethylsulfonyl-6-(trifluoromethyl)imidazo[1,2-a]pyridin-2-yl]-6-methyl-7-(trifluoromethyl)imidazo[1,2-c]pyrimidin-5-one]: the mortality at 2500 ppm in assay [1] was greater than 75%; in assay [5], greater than 75%; in assay [3], greater than 75%; in assay [4], no less than 75%. Moreover, in assay [2], the mortality at 800 ppm was greater than 75%.

In the case of `CCS(=O)(=O)c1c(-c2cn3c(=O)n(C4CC4)c(C(F)(F)F)cc3n2)nc2ccccn12` [I.2, 6-cyclopropyl-2-[3-(ethanesulfonyl)imidazo[1,2-a]pyridin-2-yl]-7-(trifluoromethyl)imidazo[1,2-c]pyrimidin-5-one], the mortality at 2500 ppm is no less than 75% in assay [6], greater than 75% in assay [1] and no less than 75% in assay [4]. The mortality at 828 ppm in assay [2] is greater than 75%.

As to `CCS(=O)(=O)c1c(-c2cn3c(=O)n(C)c(C(F)(F)F)cc3n2)nc2n1CCCC2` [I.13, 2-(3-ethylsulfonyl-5,6,7,8-tetrahydroimidazo[1,2-a]pyridin-2-yl)-6-methyl-7-(trifluoromethyl)imidazo[1,2-c]pyrimidin-5-one], in assay [2], the mortality at 800 ppm is greater than 75%.
